# Columns and labels:
# [1] = Drug recovery in Sprague-Dawley rat urine assessed as retention time at 6.5 mg/kg, iv by reverse-phase HPLC method; assay type: ADME, organism-based; design: dose 6.5 mg/kg, route intravenous; conditions: in vivo
# [2] = system: Lung; experiment: Drug metabolism in Sprague-Dawley rat lung homogenate assessed as 3'-O-methylated luteolin at 20 uM after 20 to 60 mins in presence of COMT inhibitor entacapone; assay type: ADME, tissue-based; conditions: tissue homogenate
# [3] = AUC (0 to t) in Sprague-Dawley rat at 6.5 mg/kg, iv co-treated with COMT inhibitor entacapone; assay type: ADME, organism-based; design: dose 6.5 mg/kg, route intravenous; conditions: plasma
# [4] = Drug excretion in Sprague-Dawley rat urine at 6.5 mg/kg, iv after 24 hrs co-treated with COMT inhibitor entacapone; assay type: ADME, organism-based; design: dose 6.5 mg/kg, route intravenous; conditions: read-out: Drug excretion
# [5] = system: Small intestine; experiment: Drug metabolism in Sprague-Dawley rat small intestine homogenate assessed as 4'-O-methylated luteolin at 20 uM after 20 to 60 mins in presence of COMT inhibitor entacapone; assay type: ADME, tissue-based; conditions: tissue homogenate
# [6] = system: Small intestine; experiment: Drug metabolism in Sprague-Dawley rat small intestine homogenate assessed as 3'-O-methylated luteolin at 20 uM after 20 to 60 mins; assay type: ADME, tissue-based; conditions: tissue homogenate
# [7] = Half life in Sprague-Dawley rat at 6.5 mg/kg, iv; assay type: ADME, organism-based; design: dose 6.5 mg/kg, route intravenous; conditions: in vivo
# [8] = Mean residence time (0 to t) in Sprague-Dawley rat at 6.5 mg/kg, iv co-treated with COMT inhibitor entacapone; assay type: ADME, organism-based; design: dose 6.5 mg/kg, route intravenous; conditions: in vivo
# [9] = Clearance in Sprague-Dawley rat at 6.5 mg/kg, iv co-treated with COMT inhibitor entacapone; assay type: ADME, organism-based; design: dose 6.5 mg/kg, route intravenous; conditions: in vivo
# [10] = Drug metabolism in Sprague-Dawley rat erythrocytes homogenate assessed as 3'-O-methylated luteolin at 20 uM after 20 to 60 mins in presence of COMT inhibitor entacapone; assay type: ADME, cell-based; conditions: erythrocyte
# [11] = Drug metabolism in Sprague-Dawley rat erythrocytes homogenate assessed as 4'-O-methylated luteolin at 20 uM after 20 to 60 mins; assay type: ADME, cell-based; conditions: erythrocyte
# [12] = Drug metabolism in Sprague-Dawley rat erythrocytes homogenate assessed as 3'-O-methylated luteolin at 20 uM after 20 to 60 mins; assay type: ADME, cell-based; conditions: erythrocyte
# [13] = Apparent permeability in human Caco2 cells; assay type: ADME, cell-based; conditions: caco-2
# [14] = AUC (0 to infinity) in Sprague-Dawley rat at 6.5 mg/kg, iv co-treated with COMT inhibitor entacapone; assay type: ADME, organism-based; design: time infinity, dose 6.5 mg/kg, route intravenous; conditions: plasma
# [15] = system: Kidney; experiment: Drug metabolism in Sprague-Dawley rat kidney homogenate assessed as 4'-O-methylated luteolin at 20 uM after 20 to 60 mins; assay type: ADME, tissue-based; conditions: tissue homogenate
# [16] = system: Liver; experiment: Drug metabolism in Sprague-Dawley rat liver homogenate assessed as 3'-O-methylated luteolin at 20 uM after 20 to 60 mins in presence of COMT inhibitor entacapone; assay type: ADME, tissue-based; conditions: tissue homogenate
# [17] = Drug absorption in human Caco2 cells; assay type: ADME, cell-based; conditions: caco-2
# [18] = AUC (0 to t) in Sprague-Dawley rat at 6.5 mg/kg, iv; assay type: ADME, organism-based; design: dose 6.5 mg/kg, route intravenous; conditions: plasma
# [19] = Volume of distribution in Sprague-Dawley rat at 6.5 mg/kg, iv co-treated with COMT inhibitor entacapone; assay type: ADME, organism-based; design: dose 6.5 mg/kg, route intravenous; conditions: in vivo
# [20] = Mean residence time (0 to t) in Sprague-Dawley rat at 6.5 mg/kg, iv; assay type: ADME, organism-based; design: dose 6.5 mg/kg, route intravenous; conditions: in vivo
# [21] = Volume of distribution in Sprague-Dawley rat at 6.5 mg/kg, iv; assay type: ADME, organism-based; design: dose 6.5 mg/kg, route intravenous; conditions: in vivo
# [22] = system: Liver; experiment: Drug metabolism in Sprague-Dawley rat liver homogenate assessed as 4'-O-methylated luteolin at 20 uM after 20 to 60 mins in presence of COMT inhibitor entacapone; assay type: ADME, tissue-based; conditions: tissue homogenate
# [23] = system: Liver; experiment: Drug metabolism in Sprague-Dawley rat liver homogenate assessed as 4'-O-methylated luteolin at 20 uM after 20 to 60 mins; assay type: ADME, tissue-based; conditions: tissue homogenate
# [24] = AUC (0 to infinity) in Sprague-Dawley rat at 6.5 mg/kg, iv; assay type: ADME, organism-based; design: time infinity, dose 6.5 mg/kg, route intravenous; conditions: plasma
# [25] = system: Kidney; experiment: Drug metabolism in Sprague-Dawley rat kidney homogenate assessed as 3'-O-methylated luteolin at 20 uM after 20 to 60 mins; assay type: ADME, tissue-based; conditions: tissue homogenate
# [26] = system: Lung; experiment: Drug metabolism in Sprague-Dawley rat lung homogenate assessed as 4'-O-methylated luteolin at 20 uM after 20 to 60 mins; assay type: ADME, tissue-based; conditions: tissue homogenate
# [27] = Mean residence time (0 to infinity) in Sprague-Dawley rat at 6.5 mg/kg, iv co-treated with COMT inhibitor entacapone; assay type: ADME, organism-based; design: dose 6.5 mg/kg, route intravenous; conditions: in vivo
# [28] = system: Small intestine; experiment: Drug metabolism in Sprague-Dawley rat small intestine homogenate assessed as 3'-O-methylated luteolin at 20 uM after 20 to 60 mins in presence of COMT inhibitor entacapone; assay type: ADME, tissue-based; conditions: tissue homogenate
# [29] = system: Kidney; experiment: Drug metabolism in Sprague-Dawley rat kidney homogenate assessed as 3'-O-methylated luteolin at 20 uM after 20 to 60 mins in presence of COMT inhibitor entacapone; assay type: ADME, tissue-based; conditions: tissue homogenate
# [30] = Drug excretion in Sprague-Dawley rat urine at 6.5 mg/kg, iv after 24 hrs; assay type: ADME, organism-based; design: dose 6.5 mg/kg, route intravenous; conditions: read-out: Drug excretion
# [31] = system: Liver; experiment: Drug metabolism in Sprague-Dawley rat liver homogenate assessed as 3'-O-methylated luteolin at 20 uM after 20 to 60 mins; assay type: ADME, tissue-based; conditions: tissue homogenate
# [32] = Clearance in Sprague-Dawley rat at 6.5 mg/kg, iv; assay type: ADME, organism-based; design: dose 6.5 mg/kg, route intravenous; conditions: in vivo
# [33] = system: Lung; experiment: Drug metabolism in Sprague-Dawley rat lung homogenate assessed as 4'-O-methylated luteolin at 20 uM after 20 to 60 mins in presence of COMT inhibitor entacapone; assay type: ADME, tissue-based; conditions: tissue homogenate
# [34] = system: Small intestine; experiment: Drug metabolism in Sprague-Dawley rat small intestine homogenate assessed as 4'-O-methylated luteolin at 20 uM after 20 to 60 mins; assay type: ADME, tissue-based; conditions: tissue homogenate
# [35] = Mean residence time (0 to infinity) in Sprague-Dawley rat at 6.5 mg/kg, iv; assay type: ADME, organism-based; design: dose 6.5 mg/kg, route intravenous; conditions: in vivo
# [36] = Half life in Sprague-Dawley rat at 6.5 mg/kg, iv co-treated with COMT inhibitor entacapone; assay type: ADME, organism-based; design: dose 6.5 mg/kg, route intravenous; conditions: in vivo
# [37] = system: Lung; experiment: Drug metabolism in Sprague-Dawley rat lung homogenate assessed as 3'-O-methylated luteolin at 20 uM after 20 to 60 mins; assay type: ADME, tissue-based; conditions: tissue homogenate
# [38] = Drug metabolism in Sprague-Dawley rat erythrocytes homogenate assessed as 4'-O-methylated luteolin at 20 uM after 20 to 60 mins in presence of COMT inhibitor entacapone; assay type: ADME, cell-based; conditions: erythrocyte
# [39] = system: Kidney; experiment: Drug metabolism in Sprague-Dawley rat kidney homogenate assessed as 4'-O-methylated luteolin at 20 uM after 20 to 60 mins in presence of COMT inhibitor entacapone; assay type: ADME, tissue-based; conditions: tissue homogenate
smiles,measurement,setting,value
O=c1cc(-c2ccc(O)c(O)c2)oc2cc(O)cc(O)c12 [LUTEOLIN],Retention_time,[1],15.46 min
same,Drug metabolism,[2],metabolite_not_detected
same,AUC(0-t),[3],11400 ng·h/mL
same,dose excreted at 24 h,[4],7.32%
same,Drug metabolism,[5],metabolite_not_detected
same,Drug metabolism,[6],metabolite_detected
same,half-life,[7],3.2 h
same,MRT last,[8],1.65 h
same,clearance,[9],8.95 mL/min/kg
same,Drug metabolism,[10],metabolite_not_detected
same,Drug metabolism,[11],metabolite_detected
same,Drug metabolism,[12],metabolite_detected
same,Papp,[13],5.8 ×10⁻⁶ cm/s
same,AUC(0-inf),[14],12500 ng·h/mL
same,Drug metabolism,[15],metabolite_detected
same,Drug metabolism,[16],metabolite_not_detected
same,Drug absorption,[17],20%
same,AUC(0-t),[18],7600 ng·h/mL
same,Vd,[19],2.57 L/kg
same,MRT last,[20],1.41 h
same,Vd,[21],3.74 L/kg
same,Drug metabolism,[22],metabolite_not_detected
same,Drug metabolism,[23],metabolite_detected
same,AUC(0-inf),[24],8180 ng·h/mL
same,Drug metabolism,[25],metabolite_detected
same,Drug metabolism,[26],metabolite_detected
same,MRT inf,[27],2.68 h
same,Drug metabolism,[28],metabolite_not_detected
same,Drug metabolism,[29],metabolite_not_detected
same,dose excreted at 24 h,[30],5.12%
same,Drug metabolism,[31],metabolite_detected
same,clearance,[32],13.4 mL/min/kg
same,Drug metabolism,[33],metabolite_not_detected
same,Drug metabolism,[34],metabolite_detected
same,MRT inf,[35],2.32 h
same,half-life,[36],3.31 h
same,Drug metabolism,[37],metabolite_detected
same,Drug metabolism,[38],metabolite_not_detected
same,Drug metabolism,[39],metabolite_not_detected
